In patent US20130263297A1, “METHODS OF TREATING CANCER” (Cedars-Sinai Medical Center, priority 2010, published 2013):
“Also recorded” adds a separate entry of the source.

Key:
RAW 264.7 cells = experiment: In vitro osteoclastogenesis assay (co-culture of RAW 264.7 osteoclast precursor cells with prostate cancer cells, TRAP staining); assay type: cell-based, mouse
Description: The co-cultures of osteoclast precursor cells (RAW 264.7 cells) and prostate cancer cells were performed in 48-well plate containing 500 μl of α-MEM media supplemented with 10% FBS and were set up in quadruplicates. Osteoclast precursor cells were seeded with prostate cancer cells in an 8:1 ratio (15,000 RAW 264.7 cells and 1,875 prostate cancer cells) per well. Recombinant mouse RANKL (100 ng/ml, provided by Dr. Xu Feng), was added to the assay as the positive control. Additionally, recombinant OPG (1 μg/ml) was added to designated wells to block RANKL-mediated increased osteoclastogenesis. The cells were checked under the microscope daily from day-4 to day-7. Cells were fixed and subjected to tartrate-resistant acid phosphatase (TRAP) staining (Sigma-Aldrich, Inc., St. Louis, Mo.). TRAP^+ multinucleated cells (3 nuclei) in the entire well were counted as mature osteoclasts and the images were taken under light microscopy.

ARCaPE and ARCaPM cells = experiment: EMT marker / RANKL expression by RT-PCR and Western blot and morphology, ARCaP model; assay type: cell-based, human; parameters: N-cadherin expression in ARCaPE cells (Example 9) / E-cadherin expression in ARCaPE cells (Example 9) / Snail expression in ARCaPE cells (Example 9) / vimentin expression in ARCaPE cells (Example 9): dose or concentration left out as unconfirmed
Description: 4×10^5 ARCaP and PC3 cells were seeded into a 6-well plate and cultured for 48 hrs until they grow to 90% confluence. The RANKL siRNA (50 pmole) and siRNA control (50 pmole) and lipofetamine (2.5 ul) were mixed with 250 ul of OPTI-medium without any FBS, respectively and incubated at RT for 5 minutes. The DNA and lipofetamine were then mixed together and incubated for 20 minutes before adding to the cells in each well. The medium was changed to normal 5% T-medium after 6 h incubation. The cells were incubated at 37° C. for two days before harvesting.
Total of 30 ug of proteins per well from both ARCaPE and ARCaPM cells were run on a Tris-Bis 4-12% gradient polyacrylamide gel (Invitrogen) one and half hours at 150 Volts. The proteins on the gel were then transferred to PVDF membranes using Hoefer semi-dry system. The membranes were incubated with 5% skim milk in PBST (Blocking solution) for 20 min to block non-specific antibody labeling. The RANKL primary antibody was diluted with blocking solution (1:200 and 1:500) and incubated with the membrane for one hour at RT on a rocker or overnight at 4° C. The membrane was washed with PBST (PBS+0.01% TWEEN) three times for a minimum of 5 min each. Secondary rabbit anti-goat antibodies were incubated with the membrane for one hour at RT on a rocker. The membrane was again washed with PBST three times for 5 min each. Chemiluminescent substrate (Western Lightning) was evenly added across the top surface of the membrane, and the membrane was exposed to X-ray films for 30 seconds to 2 minutes depending on the strength of the signals and then developed according to the manufacturer's instructions.
For each reaction, a 50 μl PCR reaction mix containing 5 μl of 10×PCR buffer, 1.5 ul of 50 mM MgCl2, 1 ul of 10 mM dNTP, 1 ul of each forward and reverse primers (RANKL F: […] (SEQ ID NO:1) and RANKL R: […] (SEQ ID NO:2); GAPDH as the positive control), 3 ul cDNA, 37 ul double distilled water, and 0.5 μl of Taq polymerase (Invitrogen) was made. The reaction was first activated at 94° C. for 2 min and run for 36 cycles of 94° C. (30 sec-melting), 60° C. (30 sec-annealing), and 72° C. (60 sec-extension), and lastly incubated at 72° C. for 5 min to amplify the cDNA. A 1% gel electrophoresis was run with 5 μl of 100 by DNA ladder and 10 μl of amplified cDNA of each sample to check the size of the cDNA and also whether it was successfully synthesized under UV light. […]
ARCaPE or ARCaPM cells were seeded into 6-well plate and transiently transfected with flag-tagged RANKL or neo plasmid DNA under the regulation by CMV-promoter, or RANKL siRNA (Santa Cruz Biotechnology, Inc., Santa Cruz, Calif.) with an universal scramble siRNA which serves as the control (Invitrogen, Carlsbad, Calif.). After 48 h of transfection, cells were harvested for western blotting and RT-PCR analyses. For stable transfection, LNCaP cells were first transfected with either flag-tagged RANKL- or neo-control-plasmid cDNA (Sigma-Aldrich, St. Louis, Mo.) in a 6-well plate for 48 h, and the cells were trypsinized and seeded into a 15 cm dish. The cells contain the transfected vector were selected in 400 μg/ml of G418 until individual colonies that contain transfected construct were formed. LNCaP cell colonies expressing flag-tagged RANKL or neo plasmid were picked and the cells were amplified from a 48-well plate to a 10 cm dish in the presence of G418. Stable clones were maintained in 200 μg/ml of G418 and routinely checked for flag-RANKL expression by western blot analysis.
Total RNA from cells was isolated using RNeasy Mini Kit (Qiagen, Valencia, Calif.) according to manufacturer's instructions. […]

[1] = system: RANKL promoter in ARCaPE, ARCaPM and ARCaPE-RANKL cells; experiment: RANKL promoter reporter assay, ARCaP model; assay type: cell-based, human
Source text: Because the inventors are interested in how RANKL is transcriptionally regulated, the inventors have constructed a 2.5 kb 5′ upstream region of RANKL promoter. The inventors used BAC clones (RP11-86N24) to amplify the promoter region of RANKL from human chromosome 13 contig. The whole promoter region (2.5 kb) was then cloned into pGL3 basic luciferase reporter vector. The inventors placed RANKL promoter reporter into ARCaPE,M, C4-2, and a positive cell line, SaOS-2 to examine the basic promoter activity. Then, the inventors stimulated the RANKL promoter by various growth factors, such as vitamin D3, PTH, and TGFβ.

ARCaPE-RANKL cells = experiment: Soft agar (anchorage-independent) colony formation, ARCaPE-RANKL; assay type: cell-based, human; settings: addition of OPG
[2] = system: RANKL-expressing prostate cancer cells; experiment: Stem cell and neuroendocrine marker expression; assay type: cell-based
human cancer cells = experiment: Bone colonization by human cancer cells (FIG. 34); assay type: in vivo; settings: recombinant sRANKL
[3] = system: prostate (ARCaP and LNCaP) and osteosarcoma (MG-63 and Saos-2) cells; normal prostate (PrEC and RWPE-1) or bone (RAW264.7) cells; experiment: RANKL induction of its own expression, cancer versus normal cells; assay type: cell-based
[4] = recombinant RANKL 200 and 400, four days

osteoprotegerin [OPG]
formation of mature osteoclasts induced by ARCaPE-RANKL and LNCaP-RANKL cells (RAW 264.7 cells; addition of OPG (1 μg/ml) to co-culture with RAW264.7): blocked; also recorded: decreased by approximately two-fold | osteoclastogenesis induced by Neo-transfected control cells (RAW 264.7 cells; addition of OPG to co-culture with RAW264.7): very minimal blocking effects | RANKL expression in ARCaPM cells (ARCaPE and ARCaPM cells; 1 ug/ml of OPG): down-regulated | Vimentin in ARCaPE cells (WB) (ARCaPE and ARCaPM cells; RANKL plus OPG): significantly reduced | N-cad and Vimentin expression in ARCaPE cells (RT-PCR) (ARCaPE and ARCaPM cells; RANKL plus OPG compared to 300 ng/ml RANKL): slightly decreased | E-cad expression in ARCaPE cells (RT-PCR, WB) (ARCaPE and ARCaPM cells; RANKL plus OPG compared to RANKL): restore | RANKL-induced EMT and cadherin switch in ARCaPE cells (ARCaPE and ARCaPM cells; addition of OPG): blocked; also recorded: abolished | RANKL-induced RANKL expression in ARCaPE cells (ARCaPE and ARCaPM cells; addition of OPG): attenuated | EMT phenotype of ARCaPM cells (morphology, mesenchymal genes, cadherin switch) (ARCaPE and ARCaPM cells; exposure to OPG (1 μg/ml)): reversed | RANKL promoter activity in ARCaPM cells ([1]; OPG treatment): dampen | increased RANKL promoter activity in ARCaPE-RANKL cells ([1]; OPG treatment): attenuated | soft agar colony formation (tumorigenicity) of ARCaPE-RANKL cells (ARCaPE-RANKL cells): attenuated | expression of neuroendocrine markers [2]: blocked | expression of stem cell markers [2]: antagonized

B1: RANKL: trimerized recombinant RANKL protein (rRANKL), receptor activator of NF-KB ligand (protein, UniProt O14788 69-317, looked up)
extracellular domain: YFRAQMDPNRISEDGTHCIYRILRLHENADFQDTTLESQDTKLIPDSCRRIKQAFQGAVQKELQHIVGSQHIRAEKAMVDGSWLDLAKRSKLEAQPFAHLTINATDIPSGSHKVSLSSWYHDRGWAKISNMTFSNGKLIVNQDGFYYLYANICFRHHETSGDLATEYLQLMVYVTKTSIKIPSSHTLMKGGSTKYWSGNSEFHFYSINVGGFFKLRSGEEISIEVSNPSLLDPDQDATYFGAFKVRDID
modifications: extracellular domain trimerized
E-cadherin expression in ARCaPE cells (ARCaPE and ARCaPM cells; 200 ng/ml recombinant RANKL): down-regulated | N-cadherin expression in ARCaPE cells (ARCaPE and ARCaPM cells; 200 ng/ml recombinant RANKL): up-regulated | Snail, vimentin, and RANKL expression in ARCaPE cells (ARCaPE and ARCaPM cells; 200 ng/ml recombinant RANKL): up-regulation | cell morphology of ARCaPE cells (ARCaPE and ARCaPM cells; 200 ng/ml recombinant RANKL protein, 8-day period): gradually changed their morphology from cobble-stoned clusters to more dispersed and fibroblastic-like appearance | Vimentin in ARCaPE cells (WB) (ARCaPE and ARCaPM cells; RANKL alone): only slightly increased | RANKL expression at mRNA and protein levels in ARCaPE cells (ARCaPE and ARCaPM cells; RANKL treatment): up-regulated | N-cadherin expression in ARCaPE cells (Example 9) (ARCaPE and ARCaPM cells; [4]): slightly increased | Snail expression in ARCaPE cells (Example 9) (ARCaPE and ARCaPM cells; [4]): no effect | vimentin expression in ARCaPE cells (Example 9) (ARCaPE and ARCaPM cells; [4]): increases | E-cadherin expression in ARCaPE cells (Example 9) (ARCaPE and ARCaPM cells; recombinant RANKL 200 and 400, four days, RNA and protein level): decrease | RANKL promoter activity in ARCaPE and ARCaPM cells ([1]; RANKL treatments): induced | bone colonization by human cancer cells (human cancer cells): promotes bone colonization | ability of recombinant RANKL to induce its own expression [3]: restricted to cancer
